{"source": "patent US7015238B2", "about": "“Crystalline organic acid salt of amlodipine” (CJ Corp., priority 2002, dated 2006)", "format_in_all_cases": "physicochemical", "key": {"[1]": {"test": "Stability in a liquid state (distilled water, 25° C., 4 weeks, protected from light)", "settings": "dissolved in distilled water, 4 weeks at 25° C.", "excerpt": "The observation was made under the same conditions as in the HPLC analysis for evaluating the thermal stability of samples in a solid state."}, "[2]": {"test": "Thermal stability in a solid state, acceleration test at 60° C. (HPLC content)", "description": "High Performance Liquid Chromatography (HPLC) analysis was conducted under the following conditions:\nDetector: UV absorption (237 nm)\nColumn: Octadesyl silica gel C18 (4.6 mm×150 mm, 5 μm)\nMobile phase: Potassium dihydrogen phosphate monobasic (0.03 M): Methanol=4:6 (by volume)"}, "[3]": {"test": "Evaluation of photostability (exposed to sunlight at 25° C. for 4 weeks, HPLC content)", "settings": "for Colour of the surface after exposure to light: white at initial stage, exposed to sunlight at 25° C., 4 weeks; for Content (HPLC): stored at 25° C. for 4 weeks with light exposure", "description": "To evaluate photostability, a change in the content (%, HPLC) of each sample was observed under the same HPLC analysis conditions as in the evaluation of thermal stability. Photostability is quite an important factor in therapeutic agents for treating hypertension because they are administered to patients over a prolonged period of dosage."}, "[4]": {"test": "Evaluation of hygroscopicity: water content by Karl Fisher method under various humidity conditions", "settings": "25° C."}}, "note": "Where a name gives a salt, the structure may show the parent alone.", "data": [{"smiles": "CCOC(=O)C1=C(COCCN)NC(C)=C(C(=O)OC)C1c1ccccc1Cl", "note": "(stereo not drawn) [Adipic acid salt, crystalline adipic acid salt of amlodipine]", "values": [{"measurement": "Change in the content (HPLC)", "setting": "[1]", "result": "no significant changes in the content"}, {"measurement": "Decomposed products", "setting": "[1]", "result": "no decomposed products"}, {"measurement": "Content (HPLC)", "setting": "[2]; 60° C., 1 week", "result": 99.8, "unit": "%"}, {"measurement": "Content (HPLC)", "setting": "[2]; 60° C., 2 weeks", "result": 99.7, "unit": "%"}, {"measurement": "Content (HPLC)", "setting": "[2]; 60° C., 4 weeks", "result": 99.7, "unit": "%"}, {"measurement": "Content (HPLC)", "setting": "[2]; initial stage", "result": 99.8, "unit": "%"}, {"measurement": "Colour of the surface after exposure to light", "setting": "[3]", "result": "remained white"}, {"measurement": "Water content (Karl Fisher method)", "setting": "[4]; initial stage", "result": 0.10, "unit": "%"}, {"measurement": "Water content (Karl Fisher method)", "setting": "[4]; relative humidity 25%, 1 week", "result": 0.10, "unit": "%"}, {"measurement": "Water content (Karl Fisher method)", "setting": "[4]; relative humidity 60%, 1 week", "result": 0.10, "unit": "%"}, {"measurement": "Water content (Karl Fisher method)", "setting": "[4]; relative humidity 75%, 1 week", "result": 0.14, "unit": "%"}, {"measurement": "Water content (Karl Fisher method)", "setting": "[4]; relative humidity 95%, 1 week", "result": 0.16, "unit": "%"}]}, {"smiles": "CCOC(=O)C1=C(COCCN)NC(C)=C(C(=O)OC)C1c1ccccc1Cl", "note": "(stereo not drawn) [Besylate salt, Amlodipine Besylate, reference compound]", "values": [{"measurement": "Change in the content (HPLC)", "setting": "[1]", "result": "no significant changes in the content"}, {"measurement": "Decomposed products", "setting": "[1]", "result": "no decomposed products"}, {"measurement": "Content (HPLC)", "setting": "[2]; 60° C., 1 week", "result": 99.6, "unit": "%"}, {"measurement": "Content (HPLC)", "setting": "[2]; initial stage", "result": 99.6, "unit": "%"}, {"measurement": "Content (HPLC)", "setting": "[3]", "result": 82.5, "unit": "%"}, {"measurement": "Colour of the surface after exposure to light", "setting": "[3]", "result": "turned yellow"}, {"measurement": "Water content (Karl Fisher method)", "setting": "[4]; initial stage", "result": 0.14, "unit": "%"}, {"measurement": "Water content (Karl Fisher method)", "setting": "[4]; relative humidity 25%, 1 week", "result": 0.10, "unit": "%"}, {"measurement": "Water content (Karl Fisher method)", "setting": "[4]; relative humidity 60%, 1 week", "result": 0.09, "unit": "%"}, {"measurement": "Water content (Karl Fisher method)", "setting": "[4]; relative humidity 75%, 1 week", "result": 0.15, "unit": "%"}, {"measurement": "Water content (Karl Fisher method)", "setting": "[4]; relative humidity 95%, 1 week", "result": 0.17, "unit": "%"}]}, {"smiles": "CCOC(=O)C1=C(COCCN)NC(C)=C(C(=O)OC)C1c1ccccc1Cl", "note": "(stereo not drawn) [Tosylate salt, Amlodipine p-Toluene Sulfonate]", "values": [{"measurement": "Content (HPLC)", "setting": "[3]", "result": 72.0, "unit": "%"}]}]}
